Assay results taken from ChEMBL document CHEMBL4811289, “Antibacterial and Cytotoxic Phenyltetracenoid Polyketides from Streptomyces morookaense” (J Nat Prod, 2021).
Converted amounts (≈) assume the structure as drawn. “And” between values parts separate entries of the source, which are not always exact repeats. Equal values may be shown once.

Tests used:
Vero = experiment: Cytotoxicity against African green monkey Vero cells assessed as reduction in cell viability after 72 hrs by MTT assay; type: cell-based, Chlorocebus sabaeus
Staphylococcus aureus [1] = experiment: Antibacterial activity against methicillin-sensitive Staphylococcus aureus incubated for 6 to 8 hrs by MABA; type: functional; conditions: time 6-8 hrs
HepG2 = experiment: Cytotoxicity against human HepG2 cells assessed as reduction in cell viability after 72 hrs by MTT assay; type: functional, cell-based
HeLa = experiment: Cytotoxicity against human HeLa cells assessed as reduction in cell viability after 72 hrs by MTT assay; type: functional, cell-based
Enterococcus faecium [2] = experiment: Antibacterial activity against vancomycin-sensitive Enterococcus faecium incubated for 6 to 8 hrs by MABA; type: functional; conditions: time 6-8 hrs
Enterococcus faecium [3] = experiment: Antibacterial activity against vancomycin-resistant Enterococcus faecium incubated for 6 to 8 hrs by MABA; type: functional; conditions: time 6-8 hrs
Staphylococcus aureus [4] = experiment: Antibacterial activity against methicillin-resistant Staphylococcus aureus ATCC 6548 incubated for 6 to 8 hrs by MABA; type: functional; conditions: time 6-8 hrs
A549 = experiment: Cytotoxicity against human A549 cells assessed as reduction in cell viability after 72 hrs by MTT assay; type: functional, cell-based
MCF7 = experiment: Cytotoxicity against human MCF7 cells assessed as reduction in cell viability after 72 hrs by MTT assay; type: functional, cell-based
[5] = Chlorocebus sabaeus, Vero, 72 h

SMILES: COc1cc(C)c(-c2cc(OC)cc3cc4c(c(O)c23)C(=O)c2c(cc(O)c(Cl)c2O)C4(C)C)c(O)c1
- IC50 (Vero; [5]): 18.9 µM
- MIC (Staphylococcus aureus [1]): 2.5 µg/mL (≈ 4.8 µM)
- IC50 (HepG2; Homo sapiens, HepG2, 72 h): 12.1 µM
- IC50 (HeLa; Homo sapiens, HeLa, 72 h): 7 µM
- MIC (Enterococcus faecium [2]): 2.5 µg/mL (≈ 4.8 µM)
- MIC (Enterococcus faecium [3]): 5 µg/mL (≈ 9.6 µM)
- MIC (Staphylococcus aureus [4]): 2.5 µg/mL (≈ 4.8 µM)
- IC50 (A549; Homo sapiens, A549, 72 h): 5.6 µM
- IC50 (MCF7; Homo sapiens, MCF7, 72 h): 24.3 µM

SMILES: COc1cc(C)c(-c2cc(OC)c(Cl)c3cc4c(c(O)c23)C(=O)c2c(cc(O)c(Cl)c2O)C4(C)C)c(O)c1
- IC50 (Vero; [5]): 4.8 µM
- MIC (Staphylococcus aureus [1]): 1.25 µg/mL (≈ 2.25 µM)
- IC50 (HepG2; Homo sapiens, HepG2, 72 h): 7.2 µM
- IC50 (HeLa; Homo sapiens, HeLa, 72 h): 6 µM
- MIC (Enterococcus faecium [2]): 2.5 µg/mL (≈ 4.5 µM)
- MIC (Enterococcus faecium [3]): 2.5 µg/mL (≈ 4.5 µM)
- MIC (Staphylococcus aureus [4]): 1.25 µg/mL (≈ 2.25 µM)
- IC50 (A549; Homo sapiens, A549, 72 h): 4.8 µM
- IC50 (MCF7; Homo sapiens, MCF7, 72 h): 7.6 µM

SMILES: COc1cc(C)c(-c2cc(O)cc3cc4c(c(O)c23)C(=O)c2c(cc(OC)c(Cl)c2O)C4(C)C)c(O)c1
- IC50 (Vero; [5]): 3.3 µM
- IC50 (HepG2; Homo sapiens, HepG2, 72 h): 3.2 µM
- IC50 (HeLa; Homo sapiens, HeLa, 72 h): 2.9 µM
- IC50 (A549; Homo sapiens, A549, 72 h): 3.4 µM
- IC50 (MCF7; Homo sapiens, MCF7, 72 h): 3 µM

SMILES: COc1cc(C)c(-c2cc(OC)cc3cc4c(c(O)c23)C(=O)c2c(cc(OC)c(Cl)c2O)C4(C)C)c(O)c1
- IC50 (Vero; [5]): 8.2 µM
- MIC (Staphylococcus aureus [1]): > 10 µg/mL
- IC50 (HepG2; Homo sapiens, HepG2, 72 h): 8.3 µM
- IC50 (HeLa; Homo sapiens, HeLa, 72 h): 4.6 µM
- MIC (Enterococcus faecium [2]): > 10 µg/mL
- MIC (Staphylococcus aureus [4]): > 10 µg/mL
- IC50 (A549; Homo sapiens, A549, 72 h): 7.6 µM
- IC50 (MCF7; Homo sapiens, MCF7, 72 h): 7.5 µM

SMILES: COc1cc(C)c(-c2cc(OC)c(Cl)c3cc4c(c(O)c23)C(=O)c2c(cc(OC)c(Cl)c2OC)C4(C)C)c(O)c1
- IC50 (Vero; [5]): 9 µM
- MIC (Staphylococcus aureus [1]): > 10 µg/mL
- IC50 (HepG2; Homo sapiens, HepG2, 72 h): 15 µM
- IC50 (HeLa; Homo sapiens, HeLa, 72 h): 15 µM
- MIC (Enterococcus faecium [2]): > 10 µg/mL
- MIC (Staphylococcus aureus [4]): > 10 µg/mL
- IC50 (A549; Homo sapiens, A549, 72 h): 8.3 µM
- IC50 (MCF7; Homo sapiens, MCF7, 72 h): 13.1 µM

SMILES: COc1cc(C)c(-c2cc(O)c(Cl)c3cc4c(c(O)c23)C(=O)c2c(cc(OC)c(Cl)c2O)C4(C)C)c(O)c1
- IC50 (Vero; [5]): 9 µM
- IC50 (HepG2; Homo sapiens, HepG2, 72 h): 3.2 µM
- IC50 (HeLa; Homo sapiens, HeLa, 72 h): 3.3 µM
- IC50 (A549; Homo sapiens, A549, 72 h): 2.8 µM
- IC50 (MCF7; Homo sapiens, MCF7, 72 h): 3.6 µM

SMILES: COC1=CC(=O)C(c2cc(OC)cc3cc4c(c(O)c23)C(=O)c2c(cc(OC)c(Cl)c2O)C4(C)C)=C(C)C1=O
- IC50 (Vero; [5]): > 50 µM
- MIC (Staphylococcus aureus [1]): > 10 µg/mL
- IC50 (HepG2; Homo sapiens, HepG2, 72 h): > 50 µM
- IC50 (HeLa; Homo sapiens, HeLa, 72 h): > 50 µM
- MIC (Enterococcus faecium [2]): > 10 µg/mL
- MIC (Staphylococcus aureus [4]): > 10 µg/mL
- IC50 (A549; Homo sapiens, A549, 72 h): > 50 µM
- IC50 (MCF7; Homo sapiens, MCF7, 72 h): > 50 µM

SMILES: COc1cc(C)c(-c2cc(OC)c(Cl)c3cc4c(c(O)c23)C(=O)c2c(cc(OC)c(Cl)c2O)C4(C)C)c(O)c1
- IC50 (Vero; [5]): 6.1 µM
- MIC (Staphylococcus aureus [1]): > 10 µg/mL
- IC50 (HepG2; Homo sapiens, HepG2, 72 h): 9.2 µM
- IC50 (HeLa; Homo sapiens, HeLa, 72 h): 11.5 µM
- MIC (Enterococcus faecium [2]): > 10 µg/mL
- MIC (Staphylococcus aureus [4]): > 10 µg/mL
- IC50 (A549; Homo sapiens, A549, 72 h): 9 µM
- IC50 (MCF7; Homo sapiens, MCF7, 72 h): 3.8 µM

SMILES: COc1cc2c(c(O)c1Cl)C(=O)c1c(cc3c(Cl)c(O)cc(-c4c(O)cc(O)c(Cl)c4C)c3c1O)C2(C)C
- IC50 (Vero; [5]): 14.6 µM
- IC50 (HepG2; Homo sapiens, HepG2, 72 h): 5.3 µM
- IC50 (HeLa; Homo sapiens, HeLa, 72 h): 4.7 µM
- IC50 (A549; Homo sapiens, A549, 72 h): 3.1 µM
- IC50 (MCF7; Homo sapiens, MCF7, 72 h): 4.7 µM

SMILES: COc1cc(-c2c(O)cc(O)c(Cl)c2C)c2c(O)c3c(cc2c1)C(C)(C)c1cc(OC)c(Cl)c(O)c1C3=O
- IC50 (Vero; [5]): 13.7 µM
- MIC (Staphylococcus aureus [1]): 2.5 µg/mL (≈ 4.5 µM)
- IC50 (HepG2; Homo sapiens, HepG2, 72 h): 7.3 µM
- IC50 (HeLa; Homo sapiens, HeLa, 72 h): 5.3 µM
- MIC (Enterococcus faecium [2]): 1.25 µg/mL (≈ 2.25 µM)
- MIC (Enterococcus faecium [3]): 5 µg/mL (≈ 9 µM)
- MIC (Staphylococcus aureus [4]): 1.25 µg/mL (≈ 2.25 µM)
- IC50 (A549; Homo sapiens, A549, 72 h): 6.4 µM
- IC50 (MCF7; Homo sapiens, MCF7, 72 h): 10.7 µM

SMILES: COc1cc(O)c(-c2cc(O)cc3cc4c(c(O)c23)C(=O)c2c(cc(OC)c(Cl)c2O)C4(C)C)c(C)c1Cl
- IC50 (Vero; [5]): 3.5 µM
- IC50 (HepG2; Homo sapiens, HepG2, 72 h): 3.7 µM
- IC50 (HeLa; Homo sapiens, HeLa, 72 h): 3.7 µM
- IC50 (A549; Homo sapiens, A549, 72 h): 2.6 µM
- IC50 (MCF7; Homo sapiens, MCF7, 72 h): 3.1 µM

SMILES: COc1cc(C)c(-c2nc(C)cc3cc4c(c(O)c23)C(=O)c2c(OC)cc(OC)cc2C4(C)C)c(OC)c1
- IC50 (Vero; vero): 2.7 µM and 7.5 µM
- MIC (Staphylococcus aureus [1]): > 10 µg/mL
- IC50 (HepG2; Homo sapiens, HepG2, 72 h): 3.4 µM
- IC50 (HepG2; hepg2): 3.8 µM
- IC50 (HeLa; Homo sapiens, HeLa, 72 h): 3.7 µM
- IC50 (HeLa; hela): 4.6 µM
- MIC (Enterococcus faecium [2]): > 10 µg/mL
- MIC (Staphylococcus aureus [4]): > 10 µg/mL
- IC50 (A549; Homo sapiens, A549, 72 h): 5.1 µM
- IC50 (A549; a549): 6.6 µM
- IC50 (MCF7; Homo sapiens, MCF7, 72 h): 5.9 µM
- IC50 (MCF7; mcf7): 11.2 µM

SMILES: CN[C@H](CC(C)C)C(=O)N[C@H]1C(=O)N[C@@H](CC(N)=O)C(=O)N[C@H]2C(=O)N[C@H]3C(=O)N[C@H](C(=O)N[C@H](C(=O)O)c4cc(O)cc(O)c4-c4cc3ccc4O)[C@H](O)c3ccc(c(Cl)c3)Oc3cc2cc(c3O[C@@H]2O[C@H](CO)[C@@H](O)[C@H](O)[C@H]2O[C@H]2C[C@](C)(N)[C@H](O)[C@H](C)O2)Oc2ccc(cc2Cl)[C@H]1O [VANCOMYCIN]
- MIC (Enterococcus faecium [2]): 1.25 µg/mL (≈ 0.863 µM)
- MIC (Enterococcus faecium [3]): > 40 µg/mL
- MIC (Staphylococcus aureus [4]): 0.63 µg/mL (≈ 0.435 µM)

SMILES: COc1cc2c(c(O)c1Cl)C(=O)c1c(cc3cc(O)cc(-c4c(C)c(OC)c(OC)c(Cl)c4O)c3c1O)C2(C)C
- IC50 (Vero; [5]): 14.5 µM
- MIC (Staphylococcus aureus [1]): 1.25 µg/mL (≈ 2.14 µM)
- IC50 (HepG2; Homo sapiens, HepG2, 72 h): 9.9 µM
- IC50 (HeLa; Homo sapiens, HeLa, 72 h): 7.2 µM
- MIC (Enterococcus faecium [2]): 2.5 µg/mL (≈ 4.27 µM)
- MIC (Enterococcus faecium [3]): 5 µg/mL (≈ 8.54 µM)
- MIC (Staphylococcus aureus [4]): 1.25 µg/mL (≈ 2.14 µM)
- IC50 (A549; Homo sapiens, A549, 72 h): 9.1 µM
- IC50 (MCF7; Homo sapiens, MCF7, 72 h): 17.8 µM

SMILES: COc1c(Cl)c(C)c(-c2cc(O)cc3cc4c(c(O)c23)C(=O)c2c(cc(O)c(Cl)c2O)C4(C)C)c(O)c1Cl
- IC50 (Vero; [5]): 12.4 µM
- MIC (Staphylococcus aureus [1]): 1.25 µg/mL (≈ 2.17 µM)
- IC50 (HepG2; Homo sapiens, HepG2, 72 h): 7.7 µM
- IC50 (HeLa; Homo sapiens, HeLa, 72 h): 6 µM
- MIC (Enterococcus faecium [2]): 1.25 µg/mL (≈ 2.17 µM)
- MIC (Enterococcus faecium [3]): 1.25 µg/mL (≈ 2.17 µM)
- MIC (Staphylococcus aureus [4]): 1.25 µg/mL (≈ 2.17 µM)
- IC50 (A549; Homo sapiens, A549, 72 h): 5 µM
- IC50 (MCF7; Homo sapiens, MCF7, 72 h): 14.4 µM
